Reference: PubChem BioAssay (NCI)
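Here, GI50 denotes the concentration required for 50% inhibition of growth. Definition used: TGI = concentration required for complete inhibition of growth.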

How the values were obtained:
Assay in all cases: NCI tumour cell line growth inhibition, 384-well format
OVCAR-8 ovarian = tested on: OVCAR-8 ovarian
HL-60(TB) leukemia = tested on: HL-60(TB) leukemia
MCF7 breast = tested on: MCF7 breast
SW-620 colon = tested on: SW-620 colon
RXF 393 renal = tested on: RXF 393 renal
A498 renal = tested on: A498 renal
OVCAR-5 ovarian = tested on: OVCAR-5 ovarian
HOP-62 NSCLC = tested on: HOP-62 NSCLC
UO-31 renal = tested on: UO-31 renal
PC-3 prostate = tested on: PC-3 prostate
NCI-H322M lung = tested on: NCI-H322M lung
KM12 colon = tested on: KM12 colon
OVCAR-4 ovarian = tested on: OVCAR-4 ovarian
HCT-15 colon = tested on: HCT-15 colon
SK-MEL-28 melanoma = tested on: SK-MEL-28 melanoma
U251 glioblastoma = tested on: U251 glioblastoma
SF-539 CNS = tested on: SF-539 CNS
HOP-92 NSCLC = tested on: HOP-92 NSCLC
SK-MEL-5 melanoma = tested on: SK-MEL-5 melanoma
BT-549 breast = tested on: BT-549 breast
ACHN renal = tested on: ACHN renal
SN12C renal = tested on: SN12C renal
A549 NSCLC = tested on: A549 NSCLC
HCT-116 colon = tested on: HCT-116 colon
NCI-H226 lung = tested on: NCI-H226 lung
NCI-H23 lung = tested on: NCI-H23 lung
T-47D breast = tested on: T-47D breast
RPMI-8226 leukemia = tested on: RPMI-8226 leukemia
786-0 renal = tested on: 786-0 renal
SR leukemia = tested on: SR leukemia
K-562 leukemia = tested on: K-562 leukemia
MOLT-4 leukemia = tested on: MOLT-4 leukemia
SNB-75 CNS = tested on: SNB-75 CNS
SK-MEL-2 melanoma = tested on: SK-MEL-2 melanoma
TK-10 renal = tested on: TK-10 renal
HCC-2998 colon = tested on: HCC-2998 colon
CAKI-1 renal = tested on: CAKI-1 renal
CCRF-CEM leukemia = tested on: CCRF-CEM leukemia
UACC-257 melanoma = tested on: UACC-257 melanoma
MDA-MB-231 breast = tested on: MDA-MB-231 breast
SK-OV-3 ovarian = tested on: SK-OV-3 ovarian
NCI-H460 NSCLC = tested on: NCI-H460 NSCLC
COLO 205 colon = tested on: COLO 205 colon
MDA-MB-435 melanoma = tested on: MDA-MB-435 melanoma
UACC-62 melanoma = tested on: UACC-62 melanoma
IGROV1 ovarian = tested on: IGROV1 ovarian
LOX IMVI melanoma = tested on: LOX IMVI melanoma
SF-295 CNS = tested on: SF-295 CNS
NCI/ADR-RES ovarian = tested on: NCI/ADR-RES ovarian
HT29 colon = tested on: HT29 colon
SF-268 CNS = tested on: SF-268 CNS
OVCAR-3 ovarian = tested on: OVCAR-3 ovarian
DU-145 prostate = tested on: DU-145 prostate
M14 melanoma = tested on: M14 melanoma
EKVX NSCLC = tested on: EKVX NSCLC
MALME-3M melanoma = tested on: MALME-3M melanoma
SNB-19 CNS = tested on: SNB-19 CNS
MDA-MB-468 breast = tested on: MDA-MB-468 breast
NCI-H522 lung = tested on: NCI-H522 lung

CCc1cccc(CC)c1NC(=O)c1ccn2c1CCc1cnc(Nc3ccc(N4CCN(C)CC4)cc3OC)nc1-2
GI50 (OVCAR-8 ovarian): 19.8 nM | TGI (OVCAR-8 ovarian): 1140 nM | GI50 (HL-60(TB) leukemia): 13.6 nM | TGI (HL-60(TB) leukemia): 36.4 nM | GI50 (MCF7 breast): < 10 nM | TGI (MCF7 breast): 2160 nM | GI50 (SW-620 colon): < 10 nM | GI50 (RXF 393 renal): < 19.8 nM | TGI (RXF 393 renal): 1750 nM | GI50 (A498 renal): < 21.9 nM | TGI (A498 renal): 1970 nM | GI50 (OVCAR-5 ovarian): 110 nM | TGI (OVCAR-5 ovarian): 1970 nM | GI50 (HOP-62 NSCLC): < 19.6 nM | TGI (HOP-62 NSCLC): 1760 nM | GI50 (UO-31 renal): 75 nM | TGI (UO-31 renal): 1890 nM | GI50 (PC-3 prostate): 1140 nM | TGI (PC-3 prostate): 2400 nM | GI50 (NCI-H322M lung): 1480 nM | TGI (NCI-H322M lung): 3080 nM | GI50 (KM12 colon): 1090 nM | TGI (KM12 colon): 2320 nM | GI50 (OVCAR-4 ovarian): 1490 nM | TGI (OVCAR-4 ovarian): 2910 nM | GI50 (HCT-15 colon): < 10 nM | TGI (HCT-15 colon): 1350 nM | GI50 (SK-MEL-28 melanoma): 1210 nM | TGI (SK-MEL-28 melanoma): 2460 nM | GI50 (U251 glioblastoma): < 11.5 nM | TGI (U251 glioblastoma): 1480 nM | GI50 (SF-539 CNS): < 19.4 nM | TGI (SF-539 CNS): 1450 nM | GI50 (HOP-92 NSCLC): 758 nM | TGI (HOP-92 NSCLC): 2120 nM | GI50 (SK-MEL-5 melanoma): 61.5 nM | TGI (SK-MEL-5 melanoma): 2020 nM | GI50 (BT-549 breast): 48.9 nM | TGI (BT-549 breast): 1450 nM | GI50 (ACHN renal): 37.9 nM | TGI (ACHN renal): 2210 nM | GI50 (SN12C renal): 997 nM | TGI (SN12C renal): 2160 nM | GI50 (A549 NSCLC): < 10 nM | TGI (A549 NSCLC): 2480 nM | GI50 (HCT-116 colon): < 10 nM | TGI (HCT-116 colon): 1770 nM | GI50 (NCI-H226 lung): 315 nM | TGI (NCI-H226 lung): 2430 nM | GI50 (NCI-H23 lung): 56.2 nM | TGI (NCI-H23 lung): 2680 nM | GI50 (T-47D breast): 1100 nM | TGI (T-47D breast): 2320 nM | GI50 (RPMI-8226 leukemia): 17.8 nM | TGI (RPMI-8226 leukemia): 57.5 nM | GI50 ([…]-0 renal): 39.1 nM | TGI (786-0 renal): 1690 nM | GI50 (SR leukemia): < 10 nM | GI50 (K-562 leukemia): 82.4 nM | TGI (K-562 leukemia): 1400 nM | GI50 (MOLT-4 leukemia): < 10 nM | GI50 (SNB-75 CNS): 1370 nM | TGI (SNB-75 CNS): 2690 nM | GI50 (SK-MEL-2 melanoma): 196 nM | TGI (SK-MEL-2 melanoma): 1950 nM | GI50 (TK-10 renal): 312 nM | TGI (TK-10 renal): 2370 nM | GI50 (HCC-2998 colon): 1380 nM | TGI (HCC-2998 colon): 2710 nM | GI50 (CAKI-1 renal): 242 nM | TGI (CAKI-1 renal): 2200 nM | GI50 (CCRF-CEM leukemia): < 10 nM | TGI (CCRF-CEM leukemia): 11.1 nM | GI50 (UACC-257 melanoma): 293 nM | TGI (UACC-257 melanoma): 894 nM | GI50 (MDA-MB-231 breast): 1100 nM | TGI (MDA-MB-231 breast): 2320 nM | GI50 (SK-OV-3 ovarian): 1260 nM | TGI (SK-OV-3 ovarian): 2540 nM | GI50 (NCI-H460 NSCLC): < 10 nM | TGI (NCI-H460 NSCLC): 1070 nM | GI50 (COLO 205 colon): < 10 nM | TGI (COLO 205 colon): 1250 nM | GI50 (MDA-MB-435 melanoma): 1070 nM | TGI (MDA-MB-435 melanoma): 2580 nM | GI50 (UACC-62 melanoma): 605 nM | TGI (UACC-62 melanoma): 2180 nM | GI50 (IGROV1 ovarian): 1220 nM | TGI (IGROV1 ovarian): 2480 nM | GI50 (LOX IMVI melanoma): 13.4 nM | TGI (LOX IMVI melanoma): 1360 nM | GI50 (SF-295 CNS): 36.6 nM | TGI (SF-295 CNS): 1820 nM | GI50 (NCI/ADR-RES ovarian): 27 nM | TGI (NCI/ADR-RES ovarian): 86.2 nM | GI50 (HT29 colon): 56.2 nM | TGI (HT29 colon): 1530 nM | GI50 (SF-268 CNS): 1290 nM | TGI (SF-268 CNS): 2770 nM | GI50 (OVCAR-3 ovarian): 110 nM | TGI (OVCAR-3 ovarian): 2000 nM | GI50 (DU-145 prostate): 35.8 nM | TGI (DU-145 prostate): 2320 nM | GI50 (M14 melanoma): 200 nM | TGI (M14 melanoma): 2150 nM | GI50 (EKVX NSCLC): 283 nM | TGI (EKVX NSCLC): 2280 nM | GI50 (MALME-3M melanoma): 1250 nM | TGI (MALME-3M melanoma): 2510 nM | GI50 (SNB-19 CNS): 1210 nM | TGI (SNB-19 CNS): 2580 nM | GI50 (MDA-MB-468 breast): 36.2 nM | TGI (MDA-MB-468 breast): 305 nM | GI50 (NCI-H522 lung): 88.9 nM | TGI (NCI-H522 lung): 1720 nM
